Assay results: patent publication US4228167A, “Diuretic and vasodilating tricyclic quinazolines” (Sumitomo Chemical Company, Limited, priority 1977, dated 1980)
In brackets after ≈: the same amount, converted by molar mass. Like-named read-outs stand apart in the source and are kept apart here.

Assays:
rat aortic strips = assay: Vasodilating activity: relaxation of isolated rat aortic strips contracted with potassium chloride; details: read-out: Median effective concentration (ED50)
Procedure: Vasodilating activity was examined by use of the method described by N. Tada et al., J. Pharmacol. Exp. Ther., 191, 139 (1974). The rat aortic strips were isolated and contracted using 30 mM of potassium chloride. Dose dependent relaxation in the aortic strips was observed by adding the test compounds. At the end of each experiment, papaverine in a concentration of 3×10^-5 g/ml was added and the relaxation induced was taken as 100%. Median effective concentration (ED50) was obtained from dose response curves.

[1] = Diuretic activity (urinary excretion) in rats; type: in vivo; details: standard dose of 10 mg/kg; for Urinary excretion K^30: potassium, control 0.53; for Urinary excretion Na^+ /K^ +: ratio, control 2.9; for Urinary excretion Na^30: sodium, control 1.5; for Urinary excretion: urine volume, control 9.5
Procedure: Diuretic activity was evaluated according to the method described by W. L. Lipschits et al., J. Pharmacol. Exp. Ther., 79, 97 (1943). The results in rats are shown in Table I, where the data for a standard dose of 10 mg/kg is listed for the purpose of comparison.

[2] = rat aortic strips contracted with 30 mM potassium chloride, relaxation by papaverine 3×10^-5 g/ml taken as 100%

| Structure (SMILES) | EC50 (rat aortic strips; [2]) [µg/mL] | Urinary excretion K^30 [1] [mequiv/kg] | Urinary excretion Na^+ /K^ + [1] | Urinary excretion Na^30 [1] [mequiv/kg] | Urinary excretion [1] [mL/kg] | EC50 (rat aortic strips; Rattus norvegicus) [µg/mL] |
| --- | --- | --- | --- | --- | --- | --- |
| COc1ccc2c(c1)C(c1ccccc1)N1CCN=C1N2CC1CC1 (stereo not shown) [7-MeO, H, H, [drawing 6], H, CH2 CH2, 10-Cyclopropylmethyl-7-methoxy-5-phenyl-2,3,5,10-tetrahydroimidazo[2,1-b]quinazoline] | 1 (≈ 3 µM) | – | – | – | – | – |
| CN1C2=NCCCN2C(c2ccccc2)c2cc(Cl)ccc21 (stereo not shown) [8-Cl, H, H, Me, H, CH2 CH2 CH2, 8-chloro-11-methyl-6-phenyl-3,4,6,11-tetrahydro-2H-pyrimido[2,1-b]quinazoline] | – | 0.97 | 5.6 | 5.6 | 38.3 | – |
| CCCCN1C2=NCCN2C(c2ccccc2)c2cc(Cl)ccc21 (stereo not shown) [7-Cl, H, H, n-Bu, H, CH2 CH2, 7-chloro-10-(n-butyl)-5-phenyl-2,3,5,10-tetrahydroimidazo[2,1-b]quinazoline] | – | 0.86 | 5.3 | 4.5 | 31.1 | – |
| CN1C2=NCCN2C(O)(c2ccc(Cl)cc2)c2ccccc21 (stereo not shown) [H, H, p-Cl, Me, OH, CH2 CH2, 5-(p-chlorophenyl)-5-hydroxy-10-methyl-2,3,5,10-tetrahydroimidazo[2,1-b]quinazoline] | – | 0.84 | 5.2 | 4.4 | 32.6 | – |
| CCCCN1C2=NCCCN2C(c2ccccc2)c2cc(Cl)ccc21 (stereo not shown) [8-Cl, H, H, n-Bu, H, CH2 CH2 CH2, 8-Chloro-11-(n-butyl)-6-phenyl-3,4,6,11-tetrahydro-2H-pyrimido[2,1-b]quinazoline] | 0.27 (≈ 0.763 µM) | – | – | – | – | – |
| COc1ccc(Cc2nccc3cc(OC)c(OC)cc23)cc1OC [Papaverine, reference compound] | – | – | – | – | – | 4.6 (≈ 13.6 µM) |
| Clc1ccc2c(c1)N(CC1CC1)C1=NCCCN1C2c1ccccc1 (stereo not shown) [9-Cl, H, H, [drawing 4], H, CH2 CH2 CH2, 9-Chloro-11-cyclopropylmethyl-6-phenyl-3,4,6,11-tetrahydro-2H-pyrimido[2,1-b]quinazoline] | 0.29 (≈ 0.824 µM) | 0.78 | 6.1 | 4.7 | 34.3 | – |
| Clc1ccc2c(c1)N(CC1CC1)C1=NCCN1C2c1ccccc1 (stereo not shown) [8-Cl, H, H, [drawing 3], H, CH2 CH2, 8-Chloro-10-cyclopropylmethyl-5-phenyl-2,3,5,10-tetrahydroimidazo[2,1-b]quinazoline] | 0.24 (≈ 0.71 µM) | 0.92 | 4.0 | 3.7 | 26.8 | – |
